Reference: PubChem BioAssay (NCI)
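Tested at 5 concentrations; 48 h exposure; 96-well plates; endpoints linearly interpolated, else capped at highest concentration. At the TGI there is no net growth.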

What was measured:
Test in all cases: NCI anticancer screen, dose series, 48 h
[1] = test system: SNB-19 CNS
[2] = test system: SK-MEL-28 melanoma
[3] = test system: NCI-H522 lung
[4] = test system: HCC-2998 colon
[5] = test system: SK-MEL-2 melanoma
[6] = test system: CCRF-CEM leukemia
[7] = test system: SF-295 CNS
[8] = test system: MALME-3M melanoma
[9] = test system: NCI-H23 lung
[10] = test system: K-562 leukemia
[11] = test system: RPMI-8226 leukemia
[12] = test system: MDA-N
[13] = test system: OVCAR-5 ovarian
[14] = test system: TK-10 renal
[15] = test system: SN12C renal
[16] = test system: UACC-62 melanoma
[17] = test system: COLO 205 colon
[18] = test system: HOP-62 NSCLC
[19] = test system: EKVX NSCLC
[20] = test system: CAKI-1 renal
[21] = test system: HL-60(TB) leukemia
[22] = test system: OVCAR-4 ovarian
[23] = test system: NCI-H460 lung
[24] = test system: LOX IMVI melanoma
[25] = test system: UACC-257 melanoma
[26] = test system: SK-OV-3 ovarian
[27] = test system: SR leukemia
[28] = test system: OVCAR-3 ovarian
[29] = test system: IGROV1 ovarian
[30] = test system: MCF7 breast
[31] = test system: 786-0 renal
[32] = test system: HCT-15 colon
[33] = test system: NCI-H226 lung
[34] = test system: SF-268 CNS
[35] = test system: SNB-75 CNS
[36] = test system: MDA-MB-231 breast
[37] = test system: NCI/ADR-RES ovarian
[38] = test system: HT29 colon
[39] = test system: M14 melanoma
[40] = test system: KM12 colon
[41] = test system: BT-549 breast
[42] = test system: A498 renal
[43] = test system: A549 NSCLC
[44] = test system: HS 578T breast
[45] = test system: HCT-116 colon
[46] = test system: OVCAR-8 ovarian
[47] = test system: DU-145 prostate
[48] = test system: RXF 393 renal
[49] = test system: UO-31 renal
[50] = test system: U251 CNS
[51] = test system: ACHN renal
[52] = test system: SK-MEL-5 melanoma
[53] = test system: HOP-92 NSCLC
[54] = test system: SW-620 colon
[55] = test system: PC-3 prostate
[56] = test system: MOLT-4 leukemia
[57] = test system: MDA-MB-435
[58] = test system: SF-539 CNS
[59] = test system: T-47D breast

COc1ccc(C(=O)/C=C/c2cc(O)c(O)cc2F)c(OC)c1
TGI [1]: 24.9 µM | TGI [2]: 31.1 µM | TGI [3]: 3.19 µM | TGI [4]: 7.42 µM | TGI [5]: 18.3 µM | TGI [6]: 15.2 µM | TGI [7]: 23.5 µM | TGI [8]: 24.6 µM | TGI [9]: 26.6 µM | TGI [10]: > 43.1 µM | TGI [11]: 36.4 µM | TGI [12]: 53.4 µM | TGI [13]: 33.5 µM | TGI [14]: 66.3 µM | TGI [15]: 18 µM | TGI [16]: 23.1 µM | TGI [17]: 29.8 µM | TGI [18]: 31.1 µM | TGI [19]: 49 µM | TGI [20]: > 100 µM | TGI [21]: 5.71 µM | TGI [22]: > 100 µM | TGI [23]: 17.7 µM | TGI [24]: 26.9 µM | TGI [25]: 22.7 µM | TGI [26]: 47.2 µM | TGI [27]: 14.1 µM | TGI [28]: 2.65 µM | TGI [29]: > 88.2 µM | TGI [30]: 13.9 µM | TGI [31]: 22.9 µM | TGI [32]: > 40.9 µM | TGI [33]: 55 µM | TGI [34]: 32.3 µM | TGI [35]: 20.7 µM | TGI [36]: 64.3 µM | TGI [37]: > 68.7 µM | TGI [38]: 26 µM | TGI [39]: 23.9 µM | TGI [40]: > 79.9 µM | TGI [41]: 24.4 µM | TGI [42]: 26.8 µM | TGI [43]: > 75.4 µM | TGI [44]: > 65.3 µM | TGI [45]: 20.4 µM | TGI [46]: > 76.6 µM | TGI [47]: 27.3 µM | TGI [48]: 26.7 µM | TGI [49]: 30.8 µM | TGI [50]: 20.9 µM | TGI [51]: > 63.3 µM | TGI [52]: 20.9 µM | TGI [53]: > 100 µM | TGI [54]: > 55.3 µM | TGI [55]: 25.4 µM | TGI [56]: 45.1 µM | TGI [57]: > 100 µM | TGI [58]: 31 µM | TGI [59]: > 80.3 µM

CCCCCCCCCCCCCC(=O)N(CCCCCCCCC)CC(O)C(O)C(OC1OC(CO)C(O)C(O)C1O)C(O)CO (stereo not drawn)
TGI [1]: 44 µM | TGI [2]: 33.6 µM | TGI [3]: 44.4 µM | TGI [4]: 33.7 µM | TGI [5]: 59 µM | TGI [6]: 45.4 µM | TGI [7]: 41.2 µM | TGI [8]: 35.7 µM | TGI [9]: 41.5 µM | TGI [10]: 39.4 µM | TGI [11]: 52.1 µM | TGI [12]: 38.1 µM | TGI [13]: > 100 µM | TGI [14]: 33.7 µM | TGI [15]: 37.1 µM | TGI [16]: 38.2 µM | TGI [17]: 37.3 µM | TGI [18]: 47.4 µM | TGI [19]: 34.5 µM | TGI [20]: 30.6 µM | TGI [21]: 48.7 µM | TGI [22]: 46.6 µM | TGI [23]: 39.1 µM | TGI [24]: 39.6 µM | TGI [25]: 32.1 µM | TGI [26]: 30.8 µM | TGI [27]: 46.2 µM | TGI [28]: 53.1 µM | TGI [29]: 38.1 µM | TGI [30]: > 100 µM | TGI [31]: 32 µM | TGI [32]: 49.7 µM | TGI [33]: 34.3 µM | TGI [34]: 39.4 µM | TGI [35]: 37.3 µM | TGI [36]: 37.2 µM | TGI [37]: 37.7 µM | TGI [38]: 33.3 µM | TGI [39]: 40.8 µM | TGI [40]: 37.1 µM | TGI [41]: 43.7 µM | TGI [42]: 35.9 µM | TGI [43]: 50.5 µM | TGI [44]: 51.9 µM | TGI [45]: 32.1 µM | TGI [46]: 39.3 µM | TGI [47]: 30.6 µM | TGI [48]: 54.9 µM | TGI [49]: 34.5 µM | TGI [50]: 38.6 µM | TGI [51]: 30.5 µM | TGI [52]: 34.7 µM | TGI [53]: 34 µM | TGI [54]: 36.5 µM | TGI [55]: 54.6 µM | TGI [56]: 44.9 µM | TGI [57]: 34.6 µM | TGI [58]: 51.3 µM | TGI [59]: 39.7 µM
